Measurements: patent US20250352520A1, “USE OF DEXPRAMIPEXOLE FOR THE TREATMENT OF EOSINOPHILIC COPD” (Areteia Therapeutics, Inc., priority 2024, published 2025)
Where two headings read alike, the source gives them in different places.

Legend:
[1] = system: blood eosinophils
Protocol: This was a Phase II, open-label, multicenter study in approximately 30 participants aged≥40 to ≤80 years of age with a diagnosis of COPD and a blood eosinophil count of ≥0.30×10^9/L at screening. Some patients with blood eosinophil counts of 0.25-0.299×10^9/L at screening also were included. Participants were treated with 150 mg dexpramipexole BID. […] Informed consent was obtained from participants before the initiation of any study-specific procedures. This study was conducted at approximately 30 sites in the US.
There were three phases to the study: • Screening Phase (Screening Visit through Baseline) Participants underwent screening to assess whether they satisfy the eligibility criteria. […] After the collection of all Baseline assessments, participants began investigational treatment (dexpramipexole 150 mg), BID for 16 weeks. The Week 16 Visit was the Primary Outcome Visit for the study. • Follow-up Phase (Conclusion of Week 16 assessments through Week 20) During this phase, participants had one final phone visit to collect final safety assessments following cessation of investigational product.
The primary endpoint of this study was geometric mean change in the blood AEC from Baseline to Week 16.
Blood eosinophil counts were obtained at every onsite study visit. Samples were collected between 6 AM and 12 noon to minimize diurnal variation.

[2] = for CT Scan - Mucus Score, Change from Baseline / CT Scan - Mucus Score, Result: Week 16
Source text: Mucus dysfunction, a central pathology in patients with COPD, is characterized by excess mucus production, hypersecretion, and reduced clearance, leading to accumulation in the airways as mucus plugs. Computed tomography (CT) scans of individuals with COPD can be assessed by a physician or clinician trained in lung imaging. Mucus plug scoring is assigned based on the number of lung segments with mucus plugs, ranging from 0 (no mucus plugs seen on CT scan) to 20 (all lung segments with mucus plugs).
All eligible participants received inspiratory and expiratory CT scans at Baseline and at Week 16 to assess for changes in mucus plugs and airway architecture (e.g., changes in airway wall thickness).
[…] underwent at CT scan with mucus plug scoring.

[3] = Subject 10001-001-0001 (<50% AEC reduction at Week 16), Week 4
[4] = Subject 10001-001-0001 (<50% AEC reduction at Week 16), Week 8
[5] = Subject 10001-001-0001 (<50% AEC reduction at Week 16), Week 12
[6] = Subject 10001-001-0001 (<50% AEC reduction at Week 16), Week 16
[7] = Subject 10001-001-0002 (>=50% AEC reduction at Week 16), Week 4
[8] = Subject 10001-008-0002 (<50% AEC reduction at Week 16), Week 4
[9] = Subject 10001-008-0002 (<50% AEC reduction at Week 16), Week 8
[10] = Subject 10001-008-0002 (<50% AEC reduction at Week 16), Week 12
[11] = Subject 10001-008-0002 (<50% AEC reduction at Week 16), Week 16
[12] = Subject 10001-010-0005 (<50% AEC reduction at Week 16), Week 4
[13] = Subject 10001-010-0005 (<50% AEC reduction at Week 16), Week 8
[14] = Subject 10001-010-0005 (<50% AEC reduction at Week 16), Week 12
[15] = Subject 10001-010-0005 (<50% AEC reduction at Week 16), Week 16
[16] = Subject 10001-022-0001 (>=50% AEC reduction at Week 16), Week 4
[17] = Subject 10001-022-0001 (>=50% AEC reduction at Week 16), Week 8
[18] = Subject 10001-022-0001 (>=50% AEC reduction at Week 16), Week 12
[19] = Subject 10001-022-0001 (>=50% AEC reduction at Week 16), Week 16
[20] = Subject 10001-022-0006 (<50% AEC reduction at Week 16), Week 4
[21] = Subject 10001-022-0006 (<50% AEC reduction at Week 16), Week 12
[22] = Subject 10001-022-0006 (<50% AEC reduction at Week 16), Week 16
[23] = Subject 10001-024-0002 (>=50% AEC reduction at Week 16), Week 4
[24] = Subject 10001-024-0002 (>=50% AEC reduction at Week 16), Week 8
[25] = Subject 10001-024-0002 (>=50% AEC reduction at Week 16), Week 12
[26] = Subject 10001-024-0002 (>=50% AEC reduction at Week 16), Week 16

SMILES: CCCN[C@@H]1CCc2nc(N)sc2C1 [Dexpramipexole, (6R)-2-amino-4,5,6,7-tetrahydro-6-(propylamino)benzothiazole]
- AEC Ratio to Baseline [1, 3]: 0.70
- AEC Result [1, 3]: 290 cells/uL
- AEC Ratio to Baseline [1, 4]: 0.56
- AEC Result [1, 4]: 235 cells/uL
- AEC Ratio to Baseline [1, 5]: 0.54
- AEC Result [1, 5]: 224 cells/uL
- AEC Ratio to Baseline [1, 6]: 0.62
- AEC Result [1, 6]: 260 cells/uL
- AEC Ratio to Baseline [1, 7]: 0.80
- AEC Result [1, 7]: 298 cells/uL
- AEC Result ([1]; Subject 10001-001-0002 (>=50% AEC reduction at Week 16), Week 8): 0 cells/uL
- AEC Ratio to Baseline ([1]; Subject 10001-001-0002 (>=50% AEC reduction at Week 16), Week 8, zero value replaced with 5 cells): 0.01(a)
- AEC Result ([1]; Subject 10001-001-0002 (>=50% AEC reduction at Week 16), Week 12): 0 cells/uL
- AEC Ratio to Baseline ([1]; Subject 10001-001-0002 (>=50% AEC reduction at Week 16), Week 12, zero value replaced with 5 cells): 0.01(a)
- AEC Result ([1]; Subject 10001-001-0002 (>=50% AEC reduction at Week 16), Week 16): 0 cells/uL
- AEC Ratio to Baseline ([1]; Subject 10001-001-0002 (>=50% AEC reduction at Week 16), Week 16, zero value replaced with 5 cells): 0.01(a)
- AEC Ratio to Baseline [1, 8]: 0.70
- AEC Result [1, 8]: 218 cells/uL
- AEC Ratio to Baseline [1, 9]: 1.08
- AEC Result [1, 9]: 336 cells/uL
- AEC Ratio to Baseline [1, 10]: 1.90
- AEC Result [1, 10]: 589 cells/uL
- AEC Ratio to Baseline [1, 11]: 1.24
- AEC Result [1, 11]: 384 cells/uL
- AEC Ratio to Baseline [1, 12]: 0.94
- AEC Result [1, 12]: 388 cells/uL
- AEC Ratio to Baseline [1, 13]: 0.96
- AEC Result [1, 13]: 396 cells/uL
- AEC Ratio to Baseline [1, 14]: 0.56
- AEC Result [1, 14]: 231 cells/uL
- AEC Ratio to Baseline [1, 15]: 0.64
- AEC Result [1, 15]: 266 cells/uL
- AEC Ratio to Baseline [1, 16]: 1.51
- AEC Result [1, 16]: 724 cells/uL
- AEC Ratio to Baseline [1, 17]: 0.19
- AEC Result [1, 17]: 90 cells/uL
- AEC Ratio to Baseline [1, 18]: 0.01
- AEC Result [1, 18]: 6 cells/uL
- AEC Ratio to Baseline [1, 19]: 0.01
- AEC Result [1, 19]: 6 cells/uL
- AEC Ratio to Baseline [1, 20]: 1.23
- AEC Result [1, 20]: 676 cells/uL
- AEC Ratio to Baseline [1, 21]: 1.07
- AEC Result [1, 21]: 589 cells/uL
- AEC Ratio to Baseline [1, 22]: 0.62
- AEC Result [1, 22]: 342 cells/uL
- AEC Ratio to Baseline [1, 23]: 0.77
- AEC Result [1, 23]: 192 cells/uL
- AEC Ratio to Baseline [1, 24]: 0.77
- AEC Result [1, 24]: 192 cells/uL
- AEC Ratio to Baseline [1, 25]: 0.04
- AEC Result [1, 25]: 9 cells/uL
- AEC Ratio to Baseline [1, 26]: 0.39
- AEC Result [1, 26]: 98 cells/uL
- AEC Observed, Geometric Mean ± GSE ([1]; Week 4): 353.3 ± 1.22 cells/uL
- AEC Observed, Max ([1]; Week 4): 724 cells/uL
- AEC Observed, Median ([1]; Week 4): 298.0 cells/uL
- AEC Observed, Min ([1]; Week 4): 192 cells/uL
- AEC Observed, Q1 ([1]; Week 4): 218 cells/uL
- AEC Observed, Q3 ([1]; Week 4): 676 cells/uL
- AEC Ratio to baseline, Geometric Mean ± GSE ([1]; Week 4): 0.911 ± 1.1189
- AEC Ratio to baseline, Max ([1]; Week 4): 1.51
- AEC Ratio to baseline, Median ([1]; Week 4): 0.799
- AEC Ratio to baseline, Min ([1]; Week 4): 0.70
- AEC Ratio to baseline, Q1 ([1]; Week 4): 0.70
- AEC Ratio to baseline, Q3 ([1]; Week 4): 1.23
- AEC Observed, Geometric Mean ± GSE ([1]; Week 8): 118.0 ± 1.95 cells/uL
- AEC Observed, Max ([1]; Week 8): 396 cells/uL
- AEC Observed, Median ([1]; Week 8): 212.4 cells/uL
- AEC Observed, Min ([1]; Week 8): 5 cells/uL
- AEC Observed, Q1 ([1]; Week 8): 90 cells/uL
- AEC Observed, Q3 ([1]; Week 8): 336 cells/uL
- AEC Ratio to baseline, Geometric Mean ± GSE ([1]; Week 8): 0.323 ± 1.9860
- AEC Ratio to baseline, Max ([1]; Week 8): 1.08
- AEC Ratio to baseline, Median ([1]; Week 8): 0.658
- AEC Ratio to baseline, Min ([1]; Week 8): 0.01
- AEC Ratio to baseline, Q1 ([1]; Week 8): 0.19
- AEC Ratio to baseline, Q3 ([1]; Week 8): 0.96
- AEC Observed, Geometric Mean ± GSE ([1]; Week 12): 64.9 ± 2.30 cells/uL
- AEC Observed, Max ([1]; Week 12): 589 cells/uL
- AEC Observed, Median ([1]; Week 12): 224.0 cells/uL
- AEC Observed, Min ([1]; Week 12): 5 cells/uL
- AEC Observed, Q1 ([1]; Week 12): 6 cells/uL
- AEC Observed, Q3 ([1]; Week 12): 589 cells/uL
- AEC Ratio to baseline, Geometric Mean ± GSE ([1]; Week 12): 0.167 ± 2.2497
- AEC Ratio to baseline, Max ([1]; Week 12): 1.90
- AEC Ratio to baseline, Median ([1]; Week 12): 0.538
- AEC Ratio to baseline, Min ([1]; Week 12): 0.01
- AEC Ratio to baseline, Q1 ([1]; Week 12): 0.01
- AEC Ratio to baseline, Q3 ([1]; Week 12): 1.07
- AEC Observed, Geometric Mean ± GSE ([1]; Week 16): 82.8 ± 2.06 cells/uL
- AEC Observed, Max ([1]; Week 16): 384 cells/uL
- AEC Observed, Median ([1]; Week 16): 260.0 cells/uL
- AEC Observed, Min ([1]; Week 16): 5 cells/uL
- AEC Observed, Q1 ([1]; Week 16): 6 cells/uL
- AEC Observed, Q3 ([1]; Week 16): 342 cells/uL
- AEC Ratio to baseline, Geometric Mean ± GSE ([1]; Week 16): 0.213 ± 2.0849
- AEC Ratio to baseline, Max ([1]; Week 16): 1.24
- AEC Ratio to baseline, Median ([1]; Week 16): 0.620
- AEC Ratio to baseline, Min ([1]; Week 16): 0.01
- AEC Ratio to baseline, Q1 ([1]; Week 16): 0.01
- AEC Ratio to baseline, Q3 ([1]; Week 16): 0.64
- AEC, average, percent of the baseline value ([1]; Week 16): 21.3 % of the baseline value
- subjects classified as AECR≥0.5 (reduction in AEC of ≥50% from baseline at week 16) ([1]; Week 16): 3 of the 7 subjects
- CT Scan - Mucus Score, Change from Baseline ([2]; Subject ID 10001-001-0001): 0.00
- CT Scan - Mucus Score, Result ([2]; Subject ID 10001-001-0001): 1.00
- CT Scan - Mucus Score, Change from Baseline ([2]; Subject ID 10001-001-0002): 0.00
- CT Scan - Mucus Score, Result ([2]; Subject ID 10001-001-0002): 0.00
- CT Scan - Mucus Score, Change from Baseline ([2]; Subject ID 10001-008-0002): 3.00
- CT Scan - Mucus Score, Result ([2]; Subject ID 10001-008-0002): 3.00
- CT Scan - Mucus Score, Change from Baseline ([2]; Subject ID 10001-010-0005): 0.00
- CT Scan - Mucus Score, Result ([2]; Subject ID 10001-010-0005): 0.00
- CT Scan - Mucus Score, Change from Baseline ([2]; Subject ID 10001-022-0001): −4.00
- CT Scan - Mucus Score, Result ([2]; Subject ID 10001-022-0001): 0.00
- CT Scan - Mucus Score, Change from Baseline ([2]; Subject ID 10001-022-0006): 3.00
- CT Scan - Mucus Score, Result ([2]; Subject ID 10001-022-0006): 6.00
- mucus plug score ([2]; one patient, week 16, score of 4 at baseline): 0
